Measurements reported in US20250360109A1, “COMPOSITIONS AND METHODS FOR TREATING DEPRESSION IN FEMALES” (priority 2022, published 2025).

What was measured:
Assay type in all cases: in vivo, human
[1] = system: adult subjects with major depressive disorder (MDD); assay: Phase 2 placebo-controlled study in MDD, Clinical Global Impression-Severity (CGI-S) total score; settings: mITT; for Change from Baseline, CGI-S Total at Week 1, LSM Difference (95% CI) / Change from Baseline, CGI-S Total at Week 2, LSM Difference (95% CI) / Change from Baseline, CGI-S Total at Week 3, LSM Difference (95% CI) / Change from Baseline, CGI-S Total at Week 4, LSM Difference (95% CI): 20 mg/day vs Placebo; for CGI-S Total at Week 1, Mean (SD) / CGI-S Total at Week 1, Median / CGI-S Total at Week 2, Mean (SD) / CGI-S Total at Week 2, Median / CGI-S Total at Week 3, Mean (SD) / CGI-S Total at Week 3, Median / CGI-S Total at Week 4, Mean (SD) / CGI-S Total at Week 4, Median / Change from Baseline, CGI-S Total at Week 1, Mean (SD) / Change from Baseline, CGI-S Total at Week 1, Median / Change from Baseline, CGI-S Total at Week 2, Mean (SD) / Change from Baseline, CGI-S Total at Week 2, Median / Change from Baseline, CGI-S Total at Week 3, Mean (SD) / Change from Baseline, CGI-S Total at Week 3, Median / Change from Baseline, CGI-S Total at Week 4, Mean (SD) / Change from Baseline, CGI-S Total at Week 4, Median: 20 mg/day
Experimental: (§1) A Phase 2, multicenter, double-blind, randomized, placebo-controlled study of the safety and efficacy of SP-624 in the treatment of adult subjects with major depressive disorder (MDD) as defined by the Diagnostic and Statistical Manual of Mental Disorders, Fifth Edition (DSM-5) was carried out. Following the successful completion of a Screening Phase, subjects were randomized to one of two treatment groups in a 1:1 ratio and received Compound 1 (SP-624) or placebo over a treatment period of four weeks (Treatment Group #1: SP-624 20 mg/day; Treatment Group #2: Placebo).
(§2) Prior to initiating the 4-week treatment period, subjects completed a Screening/Baseline period of up to 28 days, during which time all screening assessments were performed, and any current depression medications discontinued. All screening assessments were completed before discontinuing any current depression medications. Subjects returned for a Baseline Visit to complete efficacy and safety assessments. During the treatment period, subjects returned to the investigative site to complete efficacy and safety assessments at the end of Weeks 1, 2, 3, and 4. After the final dose of study drug, subjects completed a follow-up period of two weeks and returned at the end of Weeks 5 and 6. Subjects may be treated with anti-depressant medications according to physician recommendations after completion of the Week 5 Visit.
(§3) Each dose of Compound 1 was supplied as two capsules, each containing 10 mg of active pharmaceutical ingredient (API). Matching placebo capsules identical in shape and color to the active capsules were used.
(§4) Secondary efficacy endpoints included: • Change from Baseline to Weeks 1, 2, and 3 in MADRS total score, • Change from Baseline to Weeks 1, 2, 3, and 4 in Clinical Global Impression-Severity (CGI-S) total score, • Change from Baseline to Week 5 and change from Week 4 to Week 5 in MADRS total score and CGI-S total score, • Change from Baseline to Week 2 and Week 4 in the 17-item Hamilton Depression Rating Scale (HAM D-17) total score, • Change from Baseline to Week 2 and Week 4 in the Sheehan Disability Scale (SDS), • Change from Baseline to Week 2 and Week 4 in the Quick Inventory of Depressive Symptomology-Self Report (QIDS-SR), and • Change from Baseline to Week 2 and Week 4 in the Quality of Life Enjoyment and Satisfaction Questionnaire-Short Form (Q-LES-Q-SF).

[2] = system: adult subjects with major depressive disorder (MDD); assay: Phase 2 placebo-controlled study in MDD, 17-item Hamilton Depression Rating Scale (HAM D-17) total score; settings: mITT; for Change from Baseline, HAM-D-17 Total at Week 2, LSM Difference (95% CI) / Change from Baseline, HAM-D-17 Total at Week 4, LSM Difference (95% CI): 20 mg/day vs Placebo; for Change from Baseline, HAM-D-17 Total at Week 2, Mean (SD) / Change from Baseline, HAM-D-17 Total at Week 2, Median / Change from Baseline, HAM-D-17 Total at Week 4, Mean (SD) / Change from Baseline, HAM-D-17 Total at Week 4, Median / HAM-D-17 Total at Week 2, Mean (SD) / HAM-D-17 Total at Week 2, Median / HAM-D-17 Total at Week 4, Mean (SD) / HAM-D-17 Total at Week 4, Median: 20 mg/day
Experimental: as §1, §2, §3, §4

[3] = system: adult subjects with major depressive disorder (MDD); assay: Phase 2 placebo-controlled study in MDD, Quality of Life Enjoyment and Satisfaction Questionnaire-Short Form (Q-LES-Q-SF); settings: mITT; for Change from Baseline, Q-LES-Q-SF Total at Week 2, LSM Difference (95% CI) / Change from Baseline, Q-LES-Q-SF Total at Week 4, LSM Difference (95% CI): 20 mg/day vs Placebo; for Change from Baseline, Q-LES-Q-SF Total at Week 2, Mean (SD) / Change from Baseline, Q-LES-Q-SF Total at Week 2, Median / Change from Baseline, Q-LES-Q-SF Total at Week 4, Mean (SD) / Change from Baseline, Q-LES-Q-SF Total at Week 4, Median / Q-LES-Q-SF Total at Week 2, Mean (SD) / Q-LES-Q-SF Total at Week 2, Median / Q-LES-Q-SF Total at Week 4, Mean (SD) / Q-LES-Q-SF Total at Week 4, Median: 20 mg/day
Experimental: as §1, §2, §3, §4

COC1=CC(=O)C[C@@H](C)[C@]12Oc1c(Cl)c(-c3nnc(C)o3)cc(OC)c1C2=O [SP-624, (2S,6′R)-7-Chloro-2′,4-dimethoxy-6′-methyl-6-(5-methyl-1,3,4-oxadiazol-2-yl)-3H-spiro[1-benzofuran-2,1′-cyclohex [2]ene]-3,4′-dione]
Change from Baseline, CGI-S Total at Week 1, LSM Difference (95% CI) ([1]; Female): −0.1 (−0.3, 0.1)
Change from Baseline, CGI-S Total at Week 2, LSM Difference (95% CI) ([1]; Female): −0.3 (−0.5, 0.0)
Change from Baseline, CGI-S Total at Week 3, LSM Difference (95% CI) ([1]; Female): −0.4 (−0.7, −0.1)
Change from Baseline, CGI-S Total at Week 4, LSM Difference (95% CI) ([1]; Female): −0.5 (−0.8, −0.1)
CGI-S Total at Week 1, Mean (SD) ([1]; Female): 4.0 (0.89)
CGI-S Total at Week 1, Median ([1]; Female): 4
CGI-S Total at Week 2, Mean (SD) ([1]; Female): 3.6 (0.97)
CGI-S Total at Week 2, Median ([1]; Female): 4
CGI-S Total at Week 3, Mean (SD) ([1]; Female): 3.4 (1.15)
CGI-S Total at Week 3, Median ([1]; Female): 4
CGI-S Total at Week 4, Mean (SD) ([1]; Female): 3.3 (1.20)
CGI-S Total at Week 4, Median ([1]; Female): 3
Change from Baseline, CGI-S Total at Week 1, Mean (SD) ([1]; Female): −0.5 (0.80)
Change from Baseline, CGI-S Total at Week 1, Median ([1]; Female): 0
Change from Baseline, CGI-S Total at Week 2, Mean (SD) ([1]; Female): −0.8 (0.96)
Change from Baseline, CGI-S Total at Week 2, Median ([1]; Female): −1
Change from Baseline, CGI-S Total at Week 3, Mean (SD) ([1]; Female): −1.1 (1.13)
Change from Baseline, CGI-S Total at Week 3, Median ([1]; Female): −1
Change from Baseline, CGI-S Total at Week 4, Mean (SD) ([1]; Female): −1.2 (1.14)
Change from Baseline, CGI-S Total at Week 4, Median ([1]; Female): −1
Change from Baseline, CGI-S Total at Week 1, LSM Difference (95% CI) ([1]; Male): 0.0 (−0.5, 0.4)
Change from Baseline, CGI-S Total at Week 2, LSM Difference (95% CI) ([1]; Male): −0.1 (−0.5, 0.3)
Change from Baseline, CGI-S Total at Week 3, LSM Difference (95% CI) ([1]; Male): 0.0 (−0.4, 0.4)
Change from Baseline, CGI-S Total at Week 4, LSM Difference (95% CI) ([1]; Male): 0.2 (−0.3, 0.6)
CGI-S Total at Week 1, Mean (SD) ([1]; Male): 3.9 (0.84)
CGI-S Total at Week 1, Median ([1]; Male): 4
CGI-S Total at Week 2, Mean (SD) ([1]; Male): 3.5 (1.18)
CGI-S Total at Week 2, Median ([1]; Male): 4
CGI-S Total at Week 3, Mean (SD) ([1]; Male): 3.4 (1.15)
CGI-S Total at Week 3, Median ([1]; Male): 4
CGI-S Total at Week 4, Mean (SD) ([1]; Male): 3.4 (1.27)
CGI-S Total at Week 4, Median ([1]; Male): 4
Change from Baseline, CGI-S Total at Week 1, Mean (SD) ([1]; Male): −0.5 (0.85)
Change from Baseline, CGI-S Total at Week 1, Median ([1]; Male): 0
Change from Baseline, CGI-S Total at Week 2, Mean (SD) ([1]; Male): −0.9 (1.16)
Change from Baseline, CGI-S Total at Week 2, Median ([1]; Male): −1
Change from Baseline, CGI-S Total at Week 3, Mean (SD) ([1]; Male): −1.0 (1.16)
Change from Baseline, CGI-S Total at Week 3, Median ([1]; Male): −1
Change from Baseline, CGI-S Total at Week 4, Mean (SD) ([1]; Male): −1.0 (1.27)
Change from Baseline, CGI-S Total at Week 4, Median ([1]; Male): −1
Change from Baseline, HAM-D-17 Total at Week 2, LSM Difference (95% CI) ([2]; Female): −0.9 (−2.6, 0.8)
Change from Baseline, HAM-D-17 Total at Week 4, LSM Difference (95% CI) ([2]; Female): −2.3 (−4.2, −0.4)
Change from Baseline, HAM-D-17 Total at Week 2, Mean (SD) ([2]; Female): −6.4 (5.99)
Change from Baseline, HAM-D-17 Total at Week 2, Median ([2]; Female): −5
Change from Baseline, HAM-D-17 Total at Week 4, Mean (SD) ([2]; Female): −8.8 (6.82)
Change from Baseline, HAM-D-17 Total at Week 4, Median ([2]; Female): −8
HAM-D-17 Total at Week 2, Mean (SD) ([2]; Female): 16.6 (6.25)
HAM-D-17 Total at Week 2, Median ([2]; Female): 17
HAM-D-17 Total at Week 4, Mean (SD) ([2]; Female): 14.6 (7.03)
HAM-D-17 Total at Week 4, Median ([2]; Female): 15
Change from Baseline, HAM-D-17 Total at Week 2, LSM Difference (95% CI) ([2]; Male): 0.1 (−2.6, 2.8)
Change from Baseline, HAM-D-17 Total at Week 4, LSM Difference (95% CI) ([2]; Male): 1.4 (−1.4, 4.3)
Change from Baseline, HAM-D-17 Total at Week 2, Mean (SD) ([2]; Male): −5.7 (5.90)
Change from Baseline, HAM-D-17 Total at Week 2, Median ([2]; Male): −5
Change from Baseline, HAM-D-17 Total at Week 4, Mean (SD) ([2]; Male): −7.8 (6.57)
Change from Baseline, HAM-D-17 Total at Week 4, Median ([2]; Male): −7
HAM-D-17 Total at Week 2, Mean (SD) ([2]; Male): 16.2 (6.58)
HAM-D-17 Total at Week 2, Median ([2]; Male): 17
HAM-D-17 Total at Week 4, Mean (SD) ([2]; Male): 14.3 (6.96)
HAM-D-17 Total at Week 4, Median ([2]; Male): 15
Change from Baseline, Q-LES-Q-SF Total at Week 2, LSM Difference (95% CI) ([3]; Female): 1.1 (−1.8, 3.9)
Change from Baseline, Q-LES-Q-SF Total at Week 4, LSM Difference (95% CI) ([3]; Female): 3.3 (−0.3, 6.8)
Change from Baseline, Q-LES-Q-SF Total at Week 2, Mean (SD) ([3]; Female): 7.8 (10.32)
Change from Baseline, Q-LES-Q-SF Total at Week 2, Median ([3]; Female): 6
Change from Baseline, Q-LES-Q-SF Total at Week 4, Mean (SD) ([3]; Female): 11.4 (14.11)
Change from Baseline, Q-LES-Q-SF Total at Week 4, Median ([3]; Female): 10
Q-LES-Q-SF Total at Week 2, Mean (SD) ([3]; Female): 59.2 (11.32)
Q-LES-Q-SF Total at Week 2, Median ([3]; Female): 59
Q-LES-Q-SF Total at Week 4, Mean (SD) ([3]; Female): 62.1 (13.87)
Q-LES-Q-SF Total at Week 4, Median ([3]; Female): 59
Change from Baseline, Q-LES-Q-SF Total at Week 2, LSM Difference (95% CI) ([3]; Male): −2.2 (−6.7, 2.3)
Change from Baseline, Q-LES-Q-SF Total at Week 4, LSM Difference (95% CI) ([3]; Male): −1.3 (−6.4, 3.7)
Change from Baseline, Q-LES-Q-SF Total at Week 2, Mean (SD) ([3]; Male): 5.5 (10.39)
Change from Baseline, Q-LES-Q-SF Total at Week 2, Median ([3]; Male): 4
Change from Baseline, Q-LES-Q-SF Total at Week 4, Mean (SD) ([3]; Male): 7.1 (11.54)
Change from Baseline, Q-LES-Q-SF Total at Week 4, Median ([3]; Male): 6
Q-LES-Q-SF Total at Week 2, Mean (SD) ([3]; Male): 59.5 (12.80)
Q-LES-Q-SF Total at Week 2, Median ([3]; Male): 59
Q-LES-Q-SF Total at Week 4, Mean (SD) ([3]; Male): 61.5 (12.26)
Q-LES-Q-SF Total at Week 4, Median ([3]; Male): 61
